Assay results from patent US10597388B2, “Pyridazinone herbicides” (FMC CORPORATION, priority 2014, dated 2020).

Assays:
Type in all cases: in vivo
[1] = tested on: pigweed (Amaranthus retroflexus); assay: Test A greenhouse herbicide test, pre- and postemergence
Outline: (§1)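 Seeds sown in loam–sand blend got a preemergence directed soil spray of compound in non-phytotoxic solvent with surfactant. Postemergence treatment was given at 2–10 cm, one- to two-leaf stage. After ~10 d in greenhouse, injury was rated visually vs untreated controls, 0 (no effect) to 100 (complete control).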

[2] = tested on: ragweed (common ragweed, Ambrosia elatior); assay: as above
Outline: as §1

[3] = tested on: barnyardgrass (Echinochloa crus-galli); assay: as above
Outline: as §1

kochia (Kochia scoparia) [4] = assay: as above
Outline: as §1

[5] = tested on: wheat (Triticum aestivum); assay: as above; settings: Postemergence
Outline: as §1

corn (Zea mays) = assay: as above; settings: Postemergence
Outline: as §1

kochia (Kochia scoparia) [6] = assay: Test C greenhouse herbicide test, postemergence
Outline: (§2)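 Steps: pot plants in peat-based medium; spray postemergence at 1- to 4-leaf stage; hold in greenhouse 13 to 15 d; score visually against controls from 0 (no effect) to 100 (complete control).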

[7] = tested on: oat, wild (wild oat, Avena fatua); assay: Test C greenhouse herbicide test, postemergence
Outline: as §2

[8] = tested on: galium (catchweed bedstraw, Galium aparine); assay: Test A greenhouse herbicide test, postemergence
Outline: (§3)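 Greenhouse postemergence test: formulated chemicals sprayed on one- to two-leaf plants (2 to 10 cm), grown in loam soil blended with sand. Injury assessed visually about 10 d later against untreated controls, scored 0 (no effect) to 100 (complete control).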

[9] = tested on: blackgrass (Alopecurus myosuroides); assay: Test A greenhouse herbicide test, postemergence
Outline: as §3

[10] = tested on: oilseed rape (Brassica napus); assay: Test C greenhouse herbicide test, pre- and postemergence
Outline: (§4)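 Two application timings: at sowing into a soil/sand blend, and on 2–18 cm seedlings in peat-vermiculite potting mix. A non-phytotoxic, surfactant-containing solvent carried the compounds. Plants were compared with controls and rated visually on 0–100 after 13–15 d.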

[11] = tested on: crabgrass, large (large crabgrass, Digitaria sanguinalis); assay: as above
Outline: as §4

[12] = Postemergence, 125 g ai/ha, 0 to 100 scale where 0 is no effect and 100 is complete control
[13] = Postemergence, 500 g ai/ha, visual rating after approx. 10 d, 0 to 100 scale (0 no effect, 100 complete control)
[14] = Preemergence, 125 g ai/ha, 0 to 100 scale where 0 is no effect and 100 is complete control
[15] = Preemergence, 500 g ai/ha, 0 to 100 scale where 0 is no effect and 100 is complete control
[16] = 125 g ai/ha, 0 to 100 scale where 0 is no effect and 100 is complete control
[17] = 500 g ai/ha, visual rating after approx. 10 d, 0 to 100 scale (0 no effect, 100 complete control)
[18] = Postemergence, 31 g ai/ha, scale 0 to 100 (0 no effect, 100 complete control)
[19] = Postemergence, 62 g ai/ha, 0 to 100 scale (0 no effect, 100 complete control)
[20] = Postemergence, 250 g ai/ha, scale 0 to 100, 0 no effect, 100 complete control, 13 to 15 d
[21] = postemergence, 125 g ai/ha, scale 0 to 100, 0 no effect, 100 complete control
[22] = Preemergence, 31 g ai/ha, scale 0 to 100, 0 is no effect, 100 is complete control
[23] = Preemergence, 62 g ai/ha, scale 0 to 100, 0 is no effect, 100 is complete control
[24] = Preemergence, 125 g ai/ha, scale 0 to 100, 0 is no effect, 100 is complete control
[25] = Preemergence, 250 g ai/ha, scale 0 to 100 (0 no effect, 100 complete control)

CC(=O)Oc1c(Br)nn(C)c(=O)c1-c1c(C)ccc2ccccc12 [Compound 129]
Plant response rating, Pigweed [1, 12]: 90 | Plant response rating, Pigweed [1, 13]: 100 | Pigweed plant response rating [1, 14]: 100 | Plant response rating, Pigweed [1, 15]: 100 | Plant response rating, Ragweed [2, 12]: 100 | Plant response rating, Ragweed [2, 13]: 100 | Ragweed plant response rating [2, 14]: 90 | Plant response rating, Ragweed [2, 15]: 90 | Plant response rating, Barnyardgrass [3, 12]: 90 | Plant response rating, Barnyardgrass [3, 13]: 100 | Barnyardgrass plant response rating [3, 14]: 90 | Plant response rating, Barnyardgrass [3, 15]: 100 | Plant response rating, Kochia (kochia (Kochia scoparia) [4]; [12]): 70 | Plant response rating, Kochia (kochia (Kochia scoparia) [4]; [13]): 90 | Kochia plant response rating (kochia (Kochia scoparia) [4]; [14]): 70 | Plant response rating, Kochia (kochia (Kochia scoparia) [4]; [15]): 90 | Plant response rating, Wheat [5, 16]: 20 | Plant response rating, Wheat [5, 17]: 80 | Plant response rating, Corn (corn (Zea mays); [16]): 10 | Plant response rating, Corn (corn (Zea mays); [17]): 80 | Plant response rating, Kochia (kochia (Kochia scoparia) [6]; [18]): 50 | Kochia plant response rating (kochia (Kochia scoparia) [6]; [19]): 60 | Plant response rating, Kochia (kochia (Kochia scoparia) [6]; [20]): 95 | Kochia plant response rating (kochia (Kochia scoparia) [6]; [21]): 90 | Plant response rating, Oat, Wild [7, 18]: 85 | Oat, Wild plant response rating [7, 19]: 90 | Plant response rating, Oat, Wild [7, 20]: 98 | Oat, Wild plant response rating [7, 21]: 100 | Plant response rating, Galium [8, 16]: 100 | Plant response rating, Galium [8, 17]: 100 | Plant response rating, Blackgrass [9, 16]: 60 | Plant response rating, Blackgrass [9, 17]: 100 | Plant response rating, Oilseed Rape [10, 18]: 0 | Oilseed Rape plant response rating [10, 19]: 0 | Plant response rating, Oilseed Rape [10, 20]: 5 | Plant response rating, Oilseed Rape [10, 22]: 5 | Plant response rating, Oilseed Rape [10, 23]: 50 | Plant response rating, Oilseed Rape [10, 24]: 90 | Oilseed Rape plant response rating [10, 25]: 90 | Oilseed Rape plant response rating [10, 21]: 5 | Plant response rating, Crabgrass, Large [11, 18]: 20 | Crabgrass, Large plant response rating [11, 19]: 30 | Plant response rating, Crabgrass, Large [11, 20]: 60 | Plant response rating, Crabgrass, Large [11, 22]: 5 | Plant response rating, Crabgrass, Large [11, 23]: 25 | Plant response rating, Crabgrass, Large [11, 24]: 75 | Crabgrass, Large plant response rating [11, 25]: 85 | Crabgrass, Large plant response rating [11, 21]: 35

CCC(=O)Oc1c(C)nn(C)c(=O)c1-c1ccc(Br)c2ccccc12 [Compound 133]
Plant response rating, Pigweed [1, 12]: 90 | Plant response rating, Pigweed [1, 13]: 100 | Pigweed plant response rating [1, 14]: 80 | Plant response rating, Pigweed [1, 15]: 100 | Plant response rating, Ragweed [2, 12]: 100 | Plant response rating, Ragweed [2, 13]: 100 | Ragweed plant response rating [2, 14]: 90 | Plant response rating, Ragweed [2, 15]: 100 | Plant response rating, Barnyardgrass [3, 12]: 20 | Plant response rating, Barnyardgrass [3, 13]: 90 | Barnyardgrass plant response rating [3, 14]: 20 | Plant response rating, Barnyardgrass [3, 15]: 50 | Plant response rating, Kochia (kochia (Kochia scoparia) [4]; [12]): 90 | Plant response rating, Kochia (kochia (Kochia scoparia) [4]; [13]): 100 | Kochia plant response rating (kochia (Kochia scoparia) [4]; [14]): 40 | Plant response rating, Kochia (kochia (Kochia scoparia) [4]; [15]): 100 | Plant response rating, Wheat [5, 16]: 20 | Plant response rating, Wheat [5, 17]: 30 | Plant response rating, Corn (corn (Zea mays); [16]): 10 | Plant response rating, Corn (corn (Zea mays); [17]): 50 | Plant response rating, Kochia (kochia (Kochia scoparia) [6]; [18]): 98 | Kochia plant response rating (kochia (Kochia scoparia) [6]; [19]): 100 | Plant response rating, Kochia (kochia (Kochia scoparia) [6]; [20]): 100 | Kochia plant response rating (kochia (Kochia scoparia) [6]; [21]): 100 | Plant response rating, Oat, Wild [7, 18]: 90 | Oat, Wild plant response rating [7, 19]: 90 | Plant response rating, Oat, Wild [7, 20]: 95 | Oat, Wild plant response rating [7, 21]: 95 | Plant response rating, Galium [8, 16]: 100 | Plant response rating, Galium [8, 17]: 100 | Plant response rating, Blackgrass [9, 16]: 60 | Plant response rating, Blackgrass [9, 17]: 60 | Plant response rating, Oilseed Rape [10, 18]: 95 | Oilseed Rape plant response rating [10, 19]: 98 | Plant response rating, Oilseed Rape [10, 20]: 98 | Plant response rating, Oilseed Rape [10, 22]: 5 | Plant response rating, Oilseed Rape [10, 23]: 85 | Plant response rating, Oilseed Rape [10, 24]: 90 | Oilseed Rape plant response rating [10, 25]: 90 | Oilseed Rape plant response rating [10, 21]: 98 | Plant response rating, Crabgrass, Large [11, 18]: 0 | Crabgrass, Large plant response rating [11, 19]: 5 | Plant response rating, Crabgrass, Large [11, 20]: 20 | Plant response rating, Crabgrass, Large [11, 22]: 0 | Plant response rating, Crabgrass, Large [11, 23]: 30 | Plant response rating, Crabgrass, Large [11, 24]: 35 | Crabgrass, Large plant response rating [11, 25]: 65 | Crabgrass, Large plant response rating [11, 21]: 5
